Source: ChEMBL document CHEMBL1681783 (Bioorg Med Chem, 2011)

Key:
Squalene synthase = molecular target: T1, Squalene synthase (Homo sapiens, UniProt P37268)
T1 sequence (P37268 whole entry): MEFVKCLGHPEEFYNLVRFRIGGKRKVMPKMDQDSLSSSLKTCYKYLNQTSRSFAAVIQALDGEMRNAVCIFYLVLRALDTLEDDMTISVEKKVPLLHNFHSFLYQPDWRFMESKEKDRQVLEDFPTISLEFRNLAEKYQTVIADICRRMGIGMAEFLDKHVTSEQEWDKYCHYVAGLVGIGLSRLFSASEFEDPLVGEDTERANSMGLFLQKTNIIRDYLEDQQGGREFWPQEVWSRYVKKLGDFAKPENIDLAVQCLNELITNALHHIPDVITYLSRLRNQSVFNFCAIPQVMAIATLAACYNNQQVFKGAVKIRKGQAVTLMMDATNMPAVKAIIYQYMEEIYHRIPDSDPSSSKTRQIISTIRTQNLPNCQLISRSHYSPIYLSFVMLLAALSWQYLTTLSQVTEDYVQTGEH
Description: Inhibition of squalene synthase

Rattus norvegicus = species: Rattus norvegicus; assay: Inhibition of cholesterol synthesis in rat hepatic cells; format: functional, cell-based
[1] = Lipophilicity, log P of the compound; format: physicochemical; details: octanol/water

Structure (SMILES) | IC50 (Squalene synthase) [µM] | IC50 (Rattus norvegicus) [µM] | logP [1]
COC(=O)CCC(=O)N(CC(C)(C)C)c1ccc(Cl)cc1C(O)c1ccccc1Cl (configuration not stated) | 1.7 | – | –
CC(C)(C)CN(C(=O)CCC(=O)O)c1ccc(Cl)cc1C(O)c1ccccc1Cl (configuration not stated) | 6.5 | – | –
CC(C)(C)CN(C(=O)CCC(=O)N1CCC(C(=O)O)CC1)c1ccc(Cl)cc1C(O)c1ccccc1Cl (configuration not stated) | 0.13 | 0.25 | –
CN(C)C(=O)C1CCN(C(=O)CCC(=O)N(CC(C)(C)C)c2ccc(Cl)cc2C(O)c2ccccc2Cl)CC1 (configuration not stated) | 0.097 | – | –
CC(C)(C)CN(C(=O)CCC(=O)N1CCC(C(N)=O)CC1)c1ccc(Cl)cc1C(O)c1ccccc1Cl (configuration not stated) | 0.28 | – | –
CCOC(=O)C1CCCN(C(=O)CCC(=O)N(CC(C)(C)C)c2ccc(Cl)cc2C(O)c2ccccc2Cl)C1 (configuration not stated) | 0.41 | – | –
CC(C)(C)CN(C(=O)CCC(=O)N1CCCC(C(=O)O)C1)c1ccc(Cl)cc1[C@H](O)c1ccccc1Cl (some centres not stated) | 0.02 | 0.27 | 2.98
CC(C)(C)CN(C(=O)CCC(=O)NCC1CCCCC1)c1ccc(Cl)cc1C(O)c1ccccc1Cl (configuration not stated) | 0.22 | 2.6 | –
CC(C)(C)CN(C(=O)CCC(=O)N1CCNCC1)c1ccc(Cl)cc1C(O)c1ccccc1Cl (configuration not stated) | 2.1 | – | –
CC(C)(C)CN(C(=O)CCC(=O)N1CCN(S(C)(=O)=O)CC1)c1ccc(Cl)cc1C(O)c1ccccc1Cl (configuration not stated) | 0.26 | – | –
CCOC(=O)C1CCN(C(=O)CCCC(=O)N(CC(C)(C)C)c2ccc(Cl)cc2C(O)c2ccccc2Cl)CC1 (configuration not stated) | > 6 | – | –
CCOC(=O)C1CCN(C(=O)CC(=O)N(CC(C)(C)C)c2ccc(Cl)cc2C(O)c2ccccc2Cl)CC1 (configuration not stated) | > 0.6 | – | –
CCOC(=O)C1CCN(C(=O)CCC(=O)N(C)c2ccc(Cl)cc2C(O)c2ccccc2Cl)CC1 (configuration not stated) | 21 | – | –
CCCN(C(=O)CCC(=O)N1CCC(C(=O)OCC)CC1)c1ccc(Cl)cc1C(O)c1ccccc1Cl (configuration not stated) | 0.6 | – | –
CCOC(=O)C1CCN(C(=O)CCC(=O)N(CC(C)(C)C)c2ccc(Cl)cc2Cc2ccccc2Cl)CC1 | 0.65 | – | –
CCOC(=O)C1CCN(C(=O)CCC(=O)N(CC(C)(C)C)c2ccc(Cl)cc2CO)CC1 | > 6 | – | –
CCOC(=O)C1CCN(C(=O)CCC(=O)N(CC(C)(C)C)c2ccc(Cl)cc2C(O)c2ccccc2)CC1 (configuration not stated) | 0.77 | – | –
CCOC(=O)C1CCN(C(=O)CCC(=O)N(CC(C)(C)C)c2ccc(Cl)cc2C(O)c2cc(F)ccc2Cl)CC1 (configuration not stated) | > 0.6 | – | –
CCOC(=O)C1CCN(C(=O)CCC(=O)N(CC(C)(C)C)c2ccc(Cl)cc2C(O)c2cccc(OC)c2)CC1 (configuration not stated) | 0.21 | – | –
CCOC(=O)C1CCN(C(=O)CCC(=O)N(CC(C)(C)C)c2ccc(Cl)cc2C(O)c2ccccc2OCC)CC1 (configuration not stated) | 0.41 | – | –

Structure (SMILES) | IC50 (Squalene synthase) [µM] | IC50 (Rattus norvegicus) [µM] | logP [1]
CCOC(=O)C1CCCN(C(=O)CCC(=O)N(CC(C)(C)C)c2ccc(Cl)cc2C(O)c2ccccc2F)C1 (configuration not stated) | > 0.6 | – | –
CCOC(=O)C1CCCN(C(=O)CCC(=O)N(CC(C)(C)C)c2ccc(Cl)cc2C(O)c2cccc(F)c2Cl)C1 (configuration not stated) | 0.028 | – | –
CCOC(=O)C1CCCN(C(=O)CCC(=O)N(CC(C)(C)C)c2ccc(Cl)cc2C(O)c2ccc(F)cc2Cl)C1 (configuration not stated) | > 0.6 | – | –
CCOC(=O)C1CCCN(C(=O)CCC(=O)N(CC(C)(C)C)c2ccc(Cl)cc2C(O)c2cc(F)ccc2Cl)C1 (configuration not stated) | > 0.6 | – | –
CCOC(=O)C1CCCN(C(=O)CCC(=O)N(CC(C)(C)C)c2ccc(Cl)cc2C(O)c2cccc(OC)c2)C1 (configuration not stated) | > 0.6 | – | –
CCOC(=O)C1CCCN(C(=O)CCC(=O)N(CC(C)(C)C)c2ccc(Cl)cc2C(O)c2ccccc2OCC)C1 (configuration not stated) | > 0.6 | – | –
CCOC(=O)C1CCCN(C(=O)CCC(=O)N(CC(C)(C)C)c2ccc(Cl)cc2C(O)c2cccc3c2OCCO3)C1 (configuration not stated) | 0.013 | – | –
CC(C)(C)CN(C(=O)CCC(=O)N1CCC(C(=O)O)CC1)c1ccc(Cl)cc1C(O)c1ccccc1F (configuration not stated) | 1.7 | > 10 | –
CC(C)(C)CN(C(=O)CCC(=O)N1CCC(C(=O)O)CC1)c1ccc(Cl)cc1C(O)c1cccc(F)c1Cl (configuration not stated) | 0.017 | 0.92 | –
CC(C)(C)CN(C(=O)CCC(=O)N1CCC(C(=O)O)CC1)c1ccc(Cl)cc1C(O)c1ccc(F)cc1Cl (configuration not stated) | > 0.6 | – | –
CC(C)(C)CN(C(=O)CCC(=O)N1CCC(C(=O)O)CC1)c1ccc(Cl)cc1C(O)c1cc(F)ccc1Cl (configuration not stated) | > 0.6 | – | –
COc1cccc(C(O)c2cc(Cl)ccc2N(CC(C)(C)C)C(=O)CCC(=O)N2CCC(C(=O)O)CC2)c1 (configuration not stated) | > 0.6 | – | –
CCOc1ccccc1C(O)c1cc(Cl)ccc1N(CC(C)(C)C)C(=O)CCC(=O)N1CCC(C(=O)O)CC1 (configuration not stated) | > 0.6 | – | –
CC(C)(C)CN(C(=O)CCC(=O)N1CCCC(C(=O)O)C1)c1ccc(Cl)cc1C(O)c1ccccc1 (configuration not stated) | – | – | 2.42
CC(C)(C)CN(C(=O)CCC(=O)N1CCCC(C(=O)O)C1)c1ccc(Cl)cc1C(O)c1ccccc1F (configuration not stated) | 0.29 | 0.2 | 2.52
CC(C)(C)CN(C(=O)CCC(=O)N1CCCC(C(=O)O)C1)c1ccc(Cl)cc1C(O)c1ccc(F)cc1Cl (configuration not stated) | 0.19 | – | 3.28
CC(C)(C)CN(C(=O)CCC(=O)N1CCCC(C(=O)O)C1)c1ccc(Cl)cc1C(O)c1cc(F)ccc1Cl (configuration not stated) | > 0.6 | – | 2.8
COc1ccccc1C(O)c1cc(Cl)ccc1N(CC(C)(C)C)C(=O)CCC(=O)N1CCCC(C(=O)O)C1 (configuration not stated) | – | 0.084 | 2.81
COc1cccc(C(O)c2cc(Cl)ccc2N(CC(C)(C)C)C(=O)CCC(=O)N2CCCC(C(=O)O)C2)c1 (configuration not stated) | > 0.6 | – | 2.35
CCOc1ccccc1C(O)c1cc(Cl)ccc1N(CC(C)(C)C)C(=O)CCC(=O)N1CCCC(C(=O)O)C1 (configuration not stated) | > 0.6 | – | 3.32

Continued, values first:

IC50 (Squalene synthase) [µM] | IC50 (Rattus norvegicus) [µM] | logP [1] | Structure (SMILES)
0.0013 | 0.9 | – | CNC(=O)C1CCN(C(=O)CCC(=O)N(CC(C)(C)C)c2ccc(Cl)cc2C(O)c2ccccc2Cl)CC1 (configuration not stated)
0.0024 | – | – | CCNC(=O)C1CCN(C(=O)CCC(=O)N(CC(C)(C)C)c2ccc(Cl)cc2C(O)c2ccccc2Cl)CC1 (configuration not stated)
0.0037 | 1.6 | – | CC(C)NC(=O)C1CCN(C(=O)CCC(=O)N(CC(C)(C)C)c2ccc(Cl)cc2C(O)c2ccccc2Cl)CC1 (configuration not stated)
0.0016 | 2 | – | CCCCNC(=O)C1CCN(C(=O)CCC(=O)N(CC(C)(C)C)c2ccc(Cl)cc2C(O)c2ccccc2Cl)CC1 (configuration not stated)
0.0023 | – | – | CCOC(=O)N1CCN(C(=O)CCC(=O)N(CC(C)(C)C)c2ccc(Cl)cc2C(O)c2ccccc2Cl)CC1 (configuration not stated)
0.0011 | – | – | CC(C)(C)CN(C(=O)CCC(=O)N1CCN(C(=O)OCc2ccccc2)CC1)c1ccc(Cl)cc1C(O)c1ccccc1Cl (configuration not stated)
0.0079 | 1.4 | – | CCOC(=O)CN1CCN(C(=O)CCC(=O)N(CC(C)(C)C)c2ccc(Cl)cc2C(O)c2ccccc2Cl)CC1 (configuration not stated)
0.00045 | – | – | CCOC(=O)C1CCN(C(=O)CCC(=O)N(CC(C)(C)C)c2ccc(Cl)cc2C(O)c2ccccc2F)CC1 (configuration not stated)
0.0072 | – | – | CCOC(=O)C1CCN(C(=O)CCC(=O)N(CC(C)(C)C)c2ccc(Cl)cc2C(O)c2cccc(F)c2Cl)CC1 (configuration not stated)
0.002 | – | – | CCOC(=O)C1CCN(C(=O)CCC(=O)N(CC(C)(C)C)c2ccc(Cl)cc2C(O)c2ccc(F)cc2Cl)CC1 (configuration not stated)
0.0011 | – | – | CCOC(=O)C1CCN(C(=O)CCC(=O)N(CC(C)(C)C)c2ccc(Cl)cc2C(O)c2ccccc2OC)CC1 (configuration not stated)
0.0011 | – | – | CCOC(=O)C1CCN(C(=O)CCC(=O)N(CC(C)(C)C)c2ccc(Cl)cc2C(O)c2cccc(OC)c2OC)CC1 (configuration not stated)
0.01 | – | – | CCOC(=O)C1CCN(C(=O)CCC(=O)N(CC(C)(C)C)c2ccc(Cl)cc2C(O)c2cccc3c2OCCO3)CC1 (configuration not stated)
0.0026 | – | – | CCOC(=O)C1CCCN(C(=O)CCC(=O)N(CC(C)(C)C)c2ccc(Cl)cc2C(O)c2ccccc2OC)C1 (configuration not stated)
0.0013 | – | – | CCOC(=O)C1CCCN(C(=O)CCC(=O)N(CC(C)(C)C)c2ccc(Cl)cc2C(O)c2cccc(OC)c2OC)C1 (configuration not stated)
0.0017 | 0.6 | – | COc1ccccc1C(O)c1cc(Cl)ccc1N(CC(C)(C)C)C(=O)CCC(=O)N1CCC(C(=O)O)CC1 (configuration not stated)
0.0028 | 1.6 | – | COc1cccc(C(O)c2cc(Cl)ccc2N(CC(C)(C)C)C(=O)CCC(=O)N2CCC(C(=O)O)CC2)c1OC (configuration not stated)
0.007 | 0.23 | – | CC(C)(C)CN(C(=O)CCC(=O)N1CCC(C(=O)O)CC1)c1ccc(Cl)cc1C(O)c1cccc2c1OCCO2 (configuration not stated)
0.0084 | 1.3 | 3 | CC(C)(C)CN(C(=O)CCC(=O)N1CCCC(C(=O)O)C1)c1ccc(Cl)cc1C(O)c1cccc(F)c1Cl (configuration not stated)
0.002 | 1.5 | 2.25 | COc1cccc(C(O)c2cc(Cl)ccc2N(CC(C)(C)C)C(=O)CCC(=O)N2CCCC(C(=O)O)C2)c1OC (configuration not stated)
0.0068 | 0.17 | 1.87 | CC(C)(C)CN(C(=O)CCC(=O)N1CCCC(C(=O)O)C1)c1ccc(Cl)cc1C(O)c1cccc2c1OCCO2 (configuration not stated)
